Laboratory results published in patent US20130260365A1, “HIGHLY EFFICIENT PROCESS FOR PRODUCING BIOETHANOL” (HONDA MOTOR CO., LTD., priority 2012, published 2013).

Tests used:
[1] = tested on: fermentative microorganism cell (yeast); experiment: microbe, parasite or virus in culture; conditions: Saccharomyces cerevisiae, 24 h, read-out: Growth inhibition (%)
Method: Sugar solutions to which acetic acid or formic acid was added were prepared for comparison with a reagent sugar solution containing no organic acid, and the fermentative microorganism cell of the same count was added to each sugar solution and cultured. At this time, the pHs of the reagent sugar solutions were adjusted to be the same. The absorbance of the microorganic counts was measured 24 hours later. Using the sugar solution to which acetic acid or formic acid was not added as the criterion, the degrees of growth inhibition are shown below.

[2] = tested on: fermentative microorganism cell (yeast); conditions: for growth inhibition of fermentative microorganism cell: acetic acid 1000 or 500 mg/L, or formic acid 400 mg/L, added to reagent sugar solution, after 24 hours, compared with no organic acid added
[3] = tested on: fermentative microorganism cell; conditions: acetic acid added to give 17.79 mM vs sugar solution without acetic acid
Method: A model experiment was subsequently carried out. After 72 hours from feeding a microorganism cell to a rice straw sugar solution at 50° C.

SMILES	inhibition at 10000 µM [1] [%]	inhibition at 20000 µM [1] [%]	inhibition at 30000 µM [1] [%]	growth inhibition of fermentative microorganism cell [2]	inhibition at 5900 µM [1] [%]	inhibition at 11900 µM [1] [%]	inhibition at 17800 µM [1] [%]	growth of the fermentative microorganism cell ([2]; 3000 mg/L of acetic acid added to the reagent sugar solution)	microorganic growth (absorbance) [3]
O=CO [Formic acid, formic acid]	5.6	61.1	71.4	growth inhibition of fermentative microorganism cell was observed					
CC(=O)O [Acetic acid, acetic acid]				growth inhibition of fermentative microorganism cell was observed	10.4	28.8	75.3	no growth	evidently poorer
